Measured values reported in PMC12388496, “Discovery of (E)-1,3-Diphenyl-2-Propen-1-One Derivatives as Potent and Orally Active NLRP3 Inflammasome Inhibitors for Colitis” (Molecules, 2025).

Legend:
[1] = tested on: IL-1β secretion in BMDM cells (NLRP3 inflammasome); assay: ELISA of IL-1β secretion in LPS/nigericin-treated BMDM cells; type: cell-based; details: Mus musculus; 20 µM; LPS/nigericin-treated BMDM cells; mean ± S.E.M. (n = 3); read-out: IL-1β Inhibition Rate (%)
Protocol: When L929 cells reach the logarithmic phase, collect the cell supernatant. Filter the supernatant using a 0.22 μm filter and store it at −20 °C for future use. The 7-week-old C57BL/6 mice were selected as the source of primary bone marrow macrophages. The mice were euthanized using the cervical dislocation method. The ends of the femurs were cut, and the bone marrow was flushed into a 15 mL centrifuge tube using a 5 mL syringe. Once all the bone marrow was collected, an appropriate amount of red blood cell lysis buffer was added to the centrifuge tube. The mixture was incubated for 3–5 min, with repeated pipetting to thoroughly lyse the red blood cells. The cells were then centrifuged and collected. Add 30–40% L929 cell supernatant or M-CSF stimulatory factor to the culture dish. Culture the cells in a cell incubator at 37 °C with 5% CO2. Observe the cell condition daily, and once most cells have adhered to the surface, proceed with subsequent experiments.
Inoculate 1.0 × 10^5 BMDMs cells per well into a 96 well plate and culture overnight. Stimulate the cells with lipopolysaccharide (LPS) at a concentration of 0.2 μg/mL for 3 h, then add different concentrations of the test compounds and incubate for 30 min. Finally, add Nigericin at a concentration of 10 μM to continue the induction for 30 min. Collect the cell supernatant and measure the IL-1β secretion level in the supernatant using an ELISA kit, following the instructions provided, and calculate the IC50 value based on the relevant calculations. To ensure the accuracy and reliability of the experimental results, all experiments were repeated three times, with each experiment performed independently.

[2] = MTT assay, HepaRG cytotoxicity; type: cell-based; details: human, HepaRG cells, n = 3
Protocol: HepaRG cells in the logarithmic growth phase (10^5 cells/mL), inoculate them into a 96-well plate, and culture overnight in a 37 °C, 5% CO2 incubator. Add compounds at different concentrations and continue culturing for 24 h. Add 20 μL of MTT solution, incubate for 4 h, discard the supernatant, and add DMSO to dissolve.

SMILES	inhibition at 20 µM [1] [%]	IC50 at 24 h [2] [µM]
O=C(/C=C/c1ccc(O)cc1)c1ccc(Cl)cc1 [Compound W7, (E)-1-(4-chlorophenyl)-3-(4-hydroxyphenyl)propyl-2-en-1-one]	24.3 ± 3.67	> 50
O=C(/C=C/c1ccccc1O)c1ccccc1 [Compound F1]	52.1 ± 3.72	> 50
Cc1ccc(C(=O)/C=C/c2cccc(O)c2)cc1C [Compound F12, (E)-1-(3,4-dimethylphenyl)-3-(3-hydroxyphenyl)propyl-2-en-1-one]	15.4 ± 4.13	> 50
Cc1ccc(C(=O)/C=C/c2ccc(O)cc2)c(C)c1 [Compound W8, (E)-1-(2,4-dimethylphenyl)-3-(4-hydroxyphenyl)propyl-2-en-1-one]	88.9 ± 5.91	> 50
CC(C)(O)c1coc(S(=O)(=O)NC(=O)Nc2c3c(cc4c2CCC4)CCC3)c1 [MCC950, reference compound]	–	> 50
O=C(/C=C/c1ccc(O)cc1)c1ccccc1 [Compound W1, (E)-3-(4-hydroxyphenyl)-1-phenylprop-2-en-1-one]	17.8 ± 3.45	> 50
O=C(/C=C/c1ccccc1O)c1cccs1 [Compound F16, (E)-3-(2-hydroxyphenyl)-1-(thiophene-2-yl)propion-2-en-1-one]	92.6 ± 3.23	> 50
COc1cccc(C(=O)/C=C/c2ccc(O)cc2)c1 [Compound W2, (E)-3-(4-hydroxyphenyl)-1-(3-methoxyphenyl)propyl-2-en-1-one]	67 ± 1.23	> 50
O=C(/C=C/c1ccc(O)cc1)c1ccccc1Cl [Compound W5, (E)-1-(2-chlorophenyl)-3-(4-hydroxyphenyl)propion-2-en-1-one]	51.7 ± 2.23	> 50
O=C(/C=C/c1cccc(O)c1)c1cccc(F)c1 [Compound F13, (E)-1-(3-fluorophenyl)-3-(3-hydroxyphenyl)propyl-2-en-1-one]	34 ± 8.74	> 50
O=C(/C=C/c1ccccc1O)c1cccc2ccccc12 [Compound F15, (E)-3-(2-hydroxyphenyl)-1-(naphthale-1-yl)propyl-2-en-1-one]	91.7 ± 5.89	> 50
O=C(/C=C/c1ccccc1O)c1ccc(Br)cc1 [Compound F9, (E)-1-(4-bromophenyl)-3-(2-hydroxyphenyl)propyl-2-en-1-one]	28.4 ± 5.76	> 50
O=C(/C=C/c1cccc(O)c1)c1ccc(Br)cc1 [Compound F10, (E)-1-(4-bromophenyl)-3-(3-hydroxyphenyl)propyl-2-en-1-one]	24.2 ± 7.91	> 50
O=C(/C=C/c1cccc(O)c1)c1ccccc1 [Compound F4, (E)-3-(3-hydroxyphenyl)-1-phenylpropyl-2-en-1-one]	25.6 ± 9.03	> 50
Cc1ccc(C(=O)/C=C/c2ccccc2O)c(C)c1 [Compound F11, (E)-1-(2,4-dimethylphenyl)-3-(2-hydroxyphenyl)propyl-2-en-1-one]	88.7 ± 9.22	> 50
O=C(/C=C/c1ccc(O)cc1)c1cccc2ccccc12 [Compound W11, (E)-3-(4-hydroxyphenyl)-1-(naphthalene-1-yl)propyl-2-en-1-one]	88.3 ± 7.01	> 50
COc1cccc(C(=O)/C=C/c2cccc(O)c2)c1 [Compound F3, (E)-3-(3-hydroxyphenyl)-1-(3-methoxyphenyl)propyl-2-en-1-one]	93.4 ± 2.98	> 50
COc1ccc(C(=O)/C=C/c2ccc(O)cc2)cc1 [Compound W4, (E)-3-(4-hydroxyphenyl)-1-(4-methoxyphenyl)propyl-2-en-1-one]	6.89 ± 4.78	> 50
Cc1ccc(C(=O)/C=C/c2ccc(O)cc2)cc1C [Compound W9, (E)-1-(3,4-dimethylphenyl)-3-(4-hydroxyphenyl)propyl-2-en-1-one]	10.3 ± 6.43	> 50
O=C(/C=C/c1ccccc1O)c1ccccc1Cl [Compound F7, (E)-1-(2-chlorophenyl)-3-(2-hydroxyphenyl)propyl-2-en-1-one]	94.8 ± 3.29	> 50
O=C(/C=C/c1ccccc1O)c1ccc(Cl)cc1 [Compound F8, (E)-1-(4-chlorophenyl)-3-(2-hydroxyphenyl)propyl-2-en-1-one]	45.9 ± 3.45	> 50
O=C(/C=C/c1ccc(O)cc1)c1cccc(F)c1 [Compound W10, (E)-1-(3-fluorophenyl)-3-(4-hydroxyphenyl)propyl-2-en-1-one]	33.6 ± 3.21	> 50
COc1ccc(C(=O)/C=C/c2cccc(O)c2)cc1 [Compound F6, (E)-3-(3-hydroxyphenyl)-1-(4-methoxyphenyl)propyl-2-en-1-one]	25.1 ± 2.84	> 50
O=C(/C=C/c1ccc(O)cc1)c1cccc(Cl)c1 [Compound W3, (E)-1-(3-chlorophenyl)-3-(4-hydroxyphenyl)propyl-2-en-1-one]	21.8 ± 9.56	> 50
